Reference: patent US11331301B2, “Compositions and methods for treating cancer” (The State of Israel, Ministry of Agriculture & Rural …, priority 2017, dated 2022)

Experiments:
Type in all cases: cell-based
CB2 = test: Relative gene expression by qPCR after TNF-α; conditions: HCT-116; overnight TNF-α; versus GAPDH, 2-ΔΔCT; treated versus non-treated cells
Excerpt: (§1) Transcripts for CB1, CB2 and GPR55 were detected by qPCR in HCT116 cells.

CB1 = test: Relative gene expression by qPCR after TNF-α; conditions: HCT-116; overnight TNF-α; versus GAPDH, 2-ΔΔCT; treated versus non-treated cells
Excerpt: as §1

GPR55 = test: Relative gene expression by qPCR after TNF-α; conditions: HCT-116; overnight TNF-α; versus GAPDH, 2-ΔΔCT; treated versus non-treated cells
Excerpt: as §1

HCT116 cells = test: Cytotoxic activity with CB1, CB2 and GPR55 receptor antagonists, Alamar Blue; conditions: THCA 0.12 mM
Protocol: FIGS. 12A-C depict the determination of HCT116 cell viability using Alamar Blue fluorescence (Resazurin assay) as a function of cytotoxic effect. HCT116 cells were seeded (50,000 per well) in triplicate in 500 μL growing media and incubated for 24 h at 37° C. in a humidified 5% CO2-95% air atmosphere. […] Non-treated are the cells without TNF-α and treatments. Relative fluorescence at the excitation/emission of 544/590 nm was measured. Values were calculated as percentage of live cells relative to the non-treated (cells without TNF-α and treatments) control after reducing the autofluorescence of Alamar Blue without cells.
FIG. 12D depicts determination of HCT116 cell viability using Alamar Blue fluorescence (resazurin assay) as a function of cytotoxic effect. HCT116 cells were seeded (50,000 per well) in triplicate in 500 μL growing media and incubated for 24 hours at 37° C. in a humidified 5% CO2-95% air atmosphere. […] Treatments with F7, F1-F9, and combination of fractions without antagonists served as a positive control (Con). Non-treated are the cells without TNF-α and treatments. […] Relative fluorescence at the excitation/emission of 544/590 nm was measured. Values were calculated as percentage of live cells relative to the non-treated (cells without TNF-α and treatments) control after reducing the autofluorescence of Alamar Blue without cells. […]

Row | Compound | Mean relative expression of CB2 (CB2) | Mean relative expression of CB1 (CB1) | Mean relative expression of GPR55 (GPR55) | effect of CB2 antagonist (SR144528) on cytotoxic activity (HCT116 cells; C2F 0.2 mg/mL, F7 0.08 mg/mL) | effect of CB1 antagonist (Rimonabant) on cytotoxic activity (HCT116 cells)
1 | TNF-α | 5.84 | 1.31 | 5.26 | – | –
2 | CCCCCc1cc2c(c(O)c1C(=O)O)[C@@H]1C=C(C)CC[C@H]1C(C)(C)O2 [THCA, tetrahydrocannabinolic acid] | – | – | – | significant reduction in cytotoxic activity | significant reduction in cell cytotoxic activities
